Results published in the NIST ThermoML archive (doi:10.1016/j.jct.2017.05.001).

Experiment: wn = mass fraction of the nth substance listed
Conditions: Liquid; for mass density: Vibrating tube method

OCCN(CCO)CCO [triethanolamine] + O
viscosity [mPa·s]
Conditions	w1 = 0.0992	w1 = 0.1	w1 = 0.2	w1 = 0.2991	w1 = 0.3	w1 = 0.4
293.15 K, 100 kPa, Concentric cylinders viscometry	–	1.41	2.066	–	3.197	5.34
293.15 K, 100 kPa, Falling or rolling sphere viscometry	1.429	–	2.037	3.208	–	5.317
293.15 K, 5000 kPa, Falling or rolling sphere viscometry	1.459	–	2.036	3.212	–	5.311
293.15 K, 10000 kPa, Falling or rolling sphere viscometry	1.455	–	2.035	3.229	–	5.331
293.15 K, 15000 kPa, Falling or rolling sphere viscometry	1.454	–	2.04	3.18	–	5.376
293.15 K, 20000 kPa, Falling or rolling sphere viscometry	1.45	–	2.042	3.234	–	5.417
293.15 K, 25000 kPa, Falling or rolling sphere viscometry	1.447	–	2.044	3.242	–	5.445
293.15 K, 30000 kPa, Falling or rolling sphere viscometry	1.446	–	2.046	3.245	–	5.5
293.15 K, 40000 kPa, Falling or rolling sphere viscometry	1.443	–	2.051	3.288	–	5.549
293.15 K, 60000 kPa, Falling or rolling sphere viscometry	1.44	–	2.064	3.325	–	5.675
293.15 K, 80000 kPa, Falling or rolling sphere viscometry	1.447	–	2.08	3.373	–	5.792
293.15 K, 100000 kPa, Falling or rolling sphere viscometry	1.448	–	2.098	3.446	–	5.987
313.15 K, 100 kPa, Concentric cylinders viscometry	–	0.881	1.244	–	1.786	2.756
313.15 K, 100 kPa, Falling or rolling sphere viscometry	0.909	–	1.203	1.786	–	2.788
313.15 K, 5000 kPa, Falling or rolling sphere viscometry	0.8937	–	1.208	1.797	–	2.794
313.15 K, 10000 kPa, Falling or rolling sphere viscometry	0.8956	–	1.21	1.808	–	2.797
313.15 K, 15000 kPa, Falling or rolling sphere viscometry	0.8964	–	1.214	1.818	–	2.828
313.15 K, 20000 kPa, Falling or rolling sphere viscometry	0.8965	–	1.22	1.832	–	2.852
313.15 K, 25000 kPa, Falling or rolling sphere viscometry	0.8977	–	1.225	1.835	–	2.866
313.15 K, 30000 kPa, Falling or rolling sphere viscometry	0.8992	–	1.228	1.846	–	2.889
313.15 K, 40000 kPa, Falling or rolling sphere viscometry	0.9027	–	1.231	1.861	–	2.928
313.15 K, 60000 kPa, Falling or rolling sphere viscometry	0.91	–	1.251	1.893	–	3.028
313.15 K, 80000 kPa, Falling or rolling sphere viscometry	0.9177	–	1.276	1.933	–	3.115
313.15 K, 100000 kPa, Falling or rolling sphere viscometry	0.9261	–	1.282	1.98	–	3.193
333.15 K, 100 kPa, Concentric cylinders viscometry	–	0.621	0.821	–	1.173	1.669
333.15 K, 100 kPa, Falling or rolling sphere viscometry	0.6124	–	0.8083	1.147	–	1.67
333.15 K, 5000 kPa, Falling or rolling sphere viscometry	0.6114	–	0.8084	1.154	–	1.68
333.15 K, 10000 kPa, Falling or rolling sphere viscometry	0.6149	–	0.8125	1.164	–	1.698
333.15 K, 15000 kPa, Falling or rolling sphere viscometry	0.6154	–	0.8177	1.168	–	1.704
333.15 K, 20000 kPa, Falling or rolling sphere viscometry	0.6178	–	0.82	1.178	–	1.72
333.15 K, 25000 kPa, Falling or rolling sphere viscometry	0.6198	–	0.8238	1.181	–	1.738
333.15 K, 30000 kPa, Falling or rolling sphere viscometry	0.6221	–	0.8283	1.189	–	1.748
333.15 K, 40000 kPa, Falling or rolling sphere viscometry	0.625	–	0.8329	1.203	–	1.771
333.15 K, 60000 kPa, Falling or rolling sphere viscometry	0.6327	–	0.8473	1.225	–	1.826
333.15 K, 80000 kPa, Falling or rolling sphere viscometry	0.6418	–	0.8631	1.253	–	1.878
333.15 K, 100000 kPa, Falling or rolling sphere viscometry	0.6513	–	0.8789	1.293	–	1.964

mass density [kg/m3]
Conditions	w1 = 0.0992	w1 = 0.2	w1 = 0.2991	w1 = 0.4
293.15 K, 100 kPa	1013.3	1029.5	1046.1	1065.2
293.15 K, 500 kPa	1013.5	1029.5	1046.2	1065.3
293.15 K, 1000 kPa	1013.7	1029.7	1046.4	1065.4
293.15 K, 2000 kPa	1014.2	1030.2	1046.8	1065.8
293.15 K, 5000 kPa	1015.5	1031.4	1047.9	1066.9
293.15 K, 10000 kPa	1017.6	1033.4	1049.8	1068.7
293.15 K, 15000 kPa	1019.6	1035.4	1051.7	1070.5
293.15 K, 20000 kPa	1021.8	1037.4	1053.7	1072.3
293.15 K, 30000 kPa	1026	1041.4	1057.4	1075.8
293.15 K, 40000 kPa	1030	1045.2	1061.1	1079.3
293.15 K, 50000 kPa	1034	1049	1064.7	1082.7
293.15 K, 60000 kPa	1037.9	1052.7	1068.3	1086.1
293.15 K, 70000 kPa	1041.8	1056.4	1071.8	1089.4
293.15 K, 80000 kPa	1045.5	1059.8	1075.1	1092.5
293.15 K, 90000 kPa	1049.1	1063.4	1078.5	1095.8
293.15 K, 100000 kPa	1052.9	1066.9	1081.8	1098.9
293.15 K, 110000 kPa	1056.3	1070.2	1084.9	1101.8
293.15 K, 120000 kPa	1059.8	1073.6	1088.2	1104.9
293.15 K, 130000 kPa	1063.3	1077	1091.5	1107.9
293.15 K, 140000 kPa	1066.5	1080.1	1094.5	1110.8
313.15 K, 100 kPa	1006.9	1021.9	1037.4	1055.1
313.15 K, 500 kPa	1007	1022.1	1037.5	1055.3
313.15 K, 1000 kPa	1007.2	1022.3	1037.7	1055.4
313.15 K, 2000 kPa	1007.6	1022.7	1038.1	1055.8
313.15 K, 5000 kPa	1008.9	1023.9	1039.3	1056.9
313.15 K, 10000 kPa	1010.9	1025.9	1041.2	1058.8
313.15 K, 15000 kPa	1013	1027.8	1043.1	1060.6
313.15 K, 20000 kPa	1015	1029.7	1045	1062.4
313.15 K, 30000 kPa	1019.1	1033.7	1048.8	1066
313.15 K, 40000 kPa	1023	1037.6	1052.6	1069.7
313.15 K, 50000 kPa	1026.8	1041.2	1056.1	1073.2
313.15 K, 60000 kPa	1030.7	1044.9	1059.7	1076.6
313.15 K, 70000 kPa	1034.4	1048.5	1063.2	1079.9
313.15 K, 80000 kPa	1038	1051.9	1066.6	1083.1
313.15 K, 90000 kPa	1041.6	1055.3	1069.9	1086.3
313.15 K, 100000 kPa	1045.2	1058.8	1073.3	1089.5
313.15 K, 110000 kPa	1048.6	1062.1	1076.4	1092.7
313.15 K, 120000 kPa	1052	1065.6	1079.6	1095.7
313.15 K, 130000 kPa	1055.3	1068.7	1082.8	1098.7
313.15 K, 140000 kPa	1058.5	1071.9	1085.9	1101.7
333.15 K, 100 kPa	997.2	1011.6	1026.3	1043.1
333.15 K, 500 kPa	997.5	1011.8	1026.5	1043.3
333.15 K, 1000 kPa	997.7	1012	1026.7	1043.5
333.15 K, 2000 kPa	998.1	1012.4	1027.2	1043.9
333.15 K, 5000 kPa	999.3	1013.6	1028.3	1045.1
333.15 K, 10000 kPa	1001.4	1015.7	1030.4	1047.1
333.15 K, 15000 kPa	1003.5	1017.7	1032.4	1049
333.15 K, 20000 kPa	1005.5	1019.7	1034.3	1050.9
333.15 K, 30000 kPa	1009.6	1023.6	1038.2	1054.7
333.15 K, 40000 kPa	1013.6	1027.7	1042.1	1058.4
333.15 K, 50000 kPa	1017.5	1031.4	1045.7	1062
333.15 K, 60000 kPa	1021.3	1035	1049.4	1065.6
333.15 K, 70000 kPa	1024.8	1038.6	1052.9	1069
333.15 K, 80000 kPa	1028.6	1042.1	1056.3	1072.3
333.15 K, 90000 kPa	1032	1045.6	1059.7	1075.5
333.15 K, 100000 kPa	1035.6	1049.1	1063.2	1078.9
333.15 K, 110000 kPa	1039	1052.3	1066.3	1082
333.15 K, 120000 kPa	1042.5	1055.8	1069.8	1085.3
